Data taken from paper PMC6934184, “Selective DNA-PKcs inhibition extends the therapeutic index of localized radiotherapy and chemotherapy” (The Journal of Clinical Investigation, 2019).

Target: T1, LIMK1 (Homo sapiens, UniProt P53667)
T1 construct: purchased Thermo Fisher Scientific (Life Technologies) SelectScreen
Assay: SelectScreen LanthaScreen
Format: binding
Conditions: read-out: % displacement
Summary of the method: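 Percent values come from Thermo SelectScreen profiling of NU5455, combining activity and binding assays. CSF1R was run in Z'LYTE format at Km app ATP, and CAMK1 in Adapta format with ATP listed at 10.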

T1 sequence (P53667 whole entry): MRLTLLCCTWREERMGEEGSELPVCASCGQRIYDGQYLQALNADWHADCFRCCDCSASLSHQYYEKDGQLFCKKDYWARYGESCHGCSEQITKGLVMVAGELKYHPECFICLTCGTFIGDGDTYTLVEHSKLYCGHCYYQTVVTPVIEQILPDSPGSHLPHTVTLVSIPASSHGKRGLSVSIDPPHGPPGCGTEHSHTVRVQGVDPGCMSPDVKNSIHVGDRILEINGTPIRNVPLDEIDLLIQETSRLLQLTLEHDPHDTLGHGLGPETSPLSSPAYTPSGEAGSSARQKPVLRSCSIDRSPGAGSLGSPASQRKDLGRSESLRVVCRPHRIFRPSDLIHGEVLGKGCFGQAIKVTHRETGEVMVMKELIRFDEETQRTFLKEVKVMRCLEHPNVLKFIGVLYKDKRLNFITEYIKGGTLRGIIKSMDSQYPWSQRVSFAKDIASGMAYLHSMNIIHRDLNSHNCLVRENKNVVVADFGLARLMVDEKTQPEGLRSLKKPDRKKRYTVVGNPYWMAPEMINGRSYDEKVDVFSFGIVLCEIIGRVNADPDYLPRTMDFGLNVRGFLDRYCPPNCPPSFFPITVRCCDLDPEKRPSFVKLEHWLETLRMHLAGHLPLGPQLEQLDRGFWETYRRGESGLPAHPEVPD

CN(C(=O)CN1CCOCC1)c1ccc2sc3c(-c4cccc5c(=O)cc(N6CC7CCC(C6)O7)oc45)cccc3c2c1 [NU5455]
inhibition at 1 µM: -1.7%
